Assay results from US7279497B2, “Benzopyran derivatives substituted with secondary amines including imidazole, their preparation and pharmaceutical compositions containing them” (Korea Research Institute of Chemical Technology, priority 2002, dated 2007).

How the values were obtained:
isolated rat aorta = test: Vasorelaxation effects on isolated blood vessels (methoxamine induced vasoconstriction); conditions: rat aorta constricted with methoxamine (3 μM)
Experimental: The following experiment was conducted to examine whether the compounds of the formula 1 have vasorelaxation effects.
Male Sprague-Dawly rats (350-450 g, obtained from the Experimental Animal Team of the Korea Research Institute of Chemical Technology) were knocked unconscious by hitting the occipital region, sacrificed by cervical dislocation, and underwent thoracotomy. After being quickly removed, the thoracic aorta was deprived of the adipose tissue and cut into aortic rings of 3 mm width. The aorta was lightly rubbed with a modified Krebs Henseleit buffer (Physiological Salt Solution, PSS) soaked cotton club to remove the inner epithelial layer therefrom. While being suspended in an organ bath containing a physiological buffer, the vascular tissue was allowed to equilibrate under a resting tension of 2 g and then, stand for 1 hour at 37° C. for stabilization with a supply of a carbogen consisting of 95% O2-5% CO2.
Thereafter, the vascular tissue was constricted with 10^−5 M phenylephrine and washed several times with PSS and this procedure was repeated again to ensure the stable reactivity of vascular smooth muscle to repetitive constriction/dilatation.
In addition, 3×10^−6 M methoxamine was used to induce an intensive constriction in the vascular smooth muscle. When the vasoconstriction induced by the methoxamine reached and maintained a maximum, test compounds and controls were cumulatively added to the organ baths in concentrations of 1, 3, 10 and 30 μM so as to induce vasodilatation. Cromakalim, BMS-180448, and BMS-191095 were used as the controls.
Following the addition of test compounds, the change in the maximal constriction induced by methoxamine was calculated to plot a concentration-relaxation response curve. Through a linear regression analysis, IC50, the drug concentration at which the vascular tissue is 50% dilated, was obtained for each compound.

isolated rat hearts = test: Cardioprotective activity in isolated ischemic rat heart (Langendorff); conditions: 10 μM
Experimental: In order to determine whether the compounds of the chemical formula 1 are protective for ischemic hearts in vitro, experiments determining the anti-ischemic effects of the compounds on isolated rat hearts were conducted as follows.
For all in vitro studies, isolated rat hearts were used according to the published methods after some modification [HJ Ring, Arzneim.-Forsch./Drug Res. 39 (II), 1535 (1989): T. Krzeminski, et al., J. Pharmacological Methods, 25, 95, (1991)]
Male Sprague-Dawley rats weighing 300-450 g were anesthetized with sodium pentobarbital (100 mg/kg, i.p.). The tail vein was injected with heparin (1,000 U/kg) and then the trachea was intubated. While rats were mechanically ventilated with a rodent ventilator (Model 7025, Ugobasile, Italy), their hearts were perfused in situ with oxygenated modified Krebs-Henseleit bicarbonate buffer (described herein) by retrograde aortic cannulation. The hearts were then excised and moved to a Langendorff apparatus (H.S.E., Germany), where they were perfused with oxygenated modified Krebs-Henseleit bicarbonate buffer containing (in mM) NaCl 116, NaHCO3 24.9, KCl 4.7, MgSO4 1.1, KH2PO4 1.17, CaCl2 2.52, glucose 8.32 and pyruvate 2.0 at a constant perfusion pressure (85 mm Hg). A latex balloon filled with solvent (ethanol:water=1:1 (v/v)) and attached to a metal cannula was placed in the left ventricle through pulmonary vein and connected to a Isotec pressure transducer (H.S.E., Germany) for measurement of left ventricular pressure (LVP). The hearts were allowed to equilibrate for 15 min, at which time left ventricular end-diastolic pressure (EDP) was adjusted to 5 mm Hg and this balloon volume was maintained throughout the experiment. Then, baseline contractile function, heart rate (HR), and coronary flow (CF) (extracorporeal electromagnetic flow probe, Narco Bio-System, U.S.A.) were measured. Cardiac contractile function was calculated by subtracting LVEDP from LV peak systolic pressure (LVSP), yielding developed pressure (LVDP). Double product (DP), another important parameter for assessing cardiac performance, was calculated by multiplying HR by LVDP. Throughout the experiment, all these parameters were measured, and calculated before and 10 min after pretreatment with each compound and 30 min after the onset of reperfusion with buffer. Data on reperfusion DP were further expressed as the percentage to pretreatment DP.
After stabilization for 15 min, the hearts were pretreated for 10 min with respective drugs (10 μM, 0.04% DMSO) or vehicle (0.04% DMSO) before onset of global ischemia; test agents were administered directly into the oxygenator of the Langendorff apparatus immediately above the aortic root in a retrograde fashion as solutions in the perfusate. We then rendered the hearts globally ischemic by completely shutting off the perfusate for 30 min. Severity of ischemia was determined as the time to contracture (TTC, min) during global ischemia in which the first 5 mmHg increase in EDP was observed. Then, the hearts were reperfused and, 30 min later, contractile function (LVDP, DP) and cumulative reperfusion lactate dehydrogenase (LDH) release were measured. LDH was measured as a sensitive index for loss of cell viability with a kit supplied by Boerhinger Mannheim based on the technique of Wroblewski and LaDue [F. Wroblewski and J S. La Due, Proc Soc Exp Biol Med 90, 210, (1955)].

ischemic hearts = test: Cardioprotective activity in ischemic heart model of anesthetized rats; conditions: Rat in vivo, 0.3 mg/kg i.v.
Experimental: In order to determine whether the compounds of formula 1 are protective for ischemic hearts, experiments determining the anti-ischemic effects of the compounds on rats were conducted as follows. Male rats (350-450 g, obtained from the Experimental Animal Team of the Korea Research Institute of Chemical Technology) were anesthetized by the intraperitoneal injection of pentobarbital at a dose of 75 mg/kg. After trachetomy, the rats were rendered to respire artificially at a rate of 60/min with a stroke volume of 10 ml/kg. Cannulars were inserted into the fermoral vein and the fermoral artery and used for drug administration and blood pressure measurement, respectively. In the ischemic myocardial injury models, the body temperature has an important influence on the results. To avoid the change in the body temperature, a body temperature measuring probe was inserted into the rectum of each rat and the body temperature was constantly kept at 37° C. with the aid of a homeothermic blanket control unit. Afterwards, during testing, a continuous measurement was made of the mean arterial blood pressures and heart rates from the rats. For the measurement of the blood pressure, a pressure transducer (Statham P23XL, Grass Ins., MA, U.S.A.) was used. The heart rate was measured by a tachometer (ECG/RATE Coupler, Hugo Sachs Electronic, German) identified as Biotachometer. In addition, all of the changes occurring were continuously recorded through the Gould 2000 chart recorder ([…] Linearcorder W R 3310, Hugo Sachs Electronic). The left coronary artery was occluded according to the Selye H. method as follows. The rats underwent a left thoracotomy operation for partial opening of the chest and the right-side chest was pressurized by the middle finger of the left hand to push the heart out. Immediately after the left anterior descending coronary artery hereinafter referred to as (LAD) was carefully stitched using a suture needle with 5-0 silk ligature, the heart was then repositioned in the thoracic cavity while both ends of the ligature were situated outside. The opposite ligature ends were passed through a PE tube (PE100, 2.5 cm) and allowed to stand loose for 20 min for stabilization. Via the cannula inserted into the femoral vein, vehicles or drugs were administered into the rats which were rendered to stand for 30 min in order to sufficiently elicit the efficacies of the drugs. […] From the images input into the computer, the area of the normal blood stream tissue region which appeared blue in a computer monitor and the area which appeared colorless were measured. The percentage of the colorless area to the total area of each slice was calculated and multiplied by the weight of each slice to determine the area at risk (AAR) of each slice. […]

[1] = tested on: HUVECs (Human umbilical vein endothelial cells); test: Inhibitory effects on HUVEC tube formation; format: cell-based;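 on tube formation: from minus no inhibition up to plus-plus-plus complete inhibition versus vehicle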
Experimental: The Inhibitory effects of the compounds of the formula 1 on angiogenesis were meassured by the vascular tube formation assay of HUVECs (Human umbilical vein endothelial cells), which is one of the major angiogenic steps.
HUVECs were isolated from human umbilical vein, and cultured. HUVECs within passage 5 from confluent cultures were detached, and plated onto a layer of a bFGF (basic fibroblast growth factor)-reduced and polymerized Matrigel. Matrigel cultures were incubated with or without the compounds of formula 1, and the changes of cell morphology were captured through a phase contrast microscope and photographed.

rat brain homogenate = test: Inhibitory activity against iron-induced lipid peroxidation (MDA); format: biochemical; conditions: 30 μM, FeCl2 400 μm
Experimental: In order to examine whether the compounds of the formula 1 suppress the iron-induced lipid peroxidation, experiments were conducted as follows.
The rat brain was homogenized in a Krebs buffer (15 mM HEPES, 10 mM glucose, 140 mM NaCl, 3.6 mM KCl, 1.5 mM CaCl2, 1.4 mM KH2PO4, 0.7 mM MgCl2, pH 7.4) and the supernatant separated by centrifugation at 12,000 rpm for 10 min was used for further experiments. FeCl2 was added to a final concentration of 400 μm in the brain homogenate which was then allowed to stand at 37° C. for 30 min. for the facilitation of oxidation. Each of the test compounds was added at a concentration of 30 μM and vehicle was used as a control.
Iron facilitates the oxidation of the brain homogenate to produce malondialdehyde (MDA), a lipid peroxidation product. Thus, the lipid peroxidation was determined by MDA quantification. The inhibitory effect of the test compounds against the lipid peroxidation was evaluated by calculating MDA reduction rate of the test compounds compared with that of the control group.
Typically, the MDA quantification is achieved by reacting samples with 2-thiobarbituric acid (TBA) and measuring the absorbance at 530 nm. However, this method is unsuitable to treat samples on a large scale because of a boiling step. Thus, in this experiment, N-methyl-2-phenylindole was used instead of TBA. […] Bioxytech^R LPO-586 Kit was used for MDA quantification.

SPF SD rats = conditions: rat, in vivo, po;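 further: Six-week-old animals, two per group, followed across an observation period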
[2] = tested on: cerebral cortical neurons; test: Protective activity against iron-induced neuronal damage (LDH release); format: cell-based; conditions: Rattus norvegicus, Cortical neurone, FeSO4 50 μM, 24 hours
Experimental: In order to examine whether the compounds of the formula 1 suppress the iron-induced neuronal damage and death, experiments were conducted as follows.
From the brains of 17-18 day-old rat embryos, cerebral cortical neurons were isolated and then, cultured at 37° C. for 7-9 days in a 5% CO2 incubator. The cortical cell cultures were washed twice with a minimum essential medium (MEM) to reduce the serum concentration to 0.2% and pre-treated with test compounds at 30, 7.5, 1.875, and 0.469 μM of final concentrations, each for 30 min. The test compounds were dissolved in DMSO and diluted in a medium. At this time, the final concentration of DMSO was not allowed to exceed 0.2%. For a control group, only vehicle was applied.
After the pre-treatment with test compounds or vehicle, FeSO4 was added to a final concentration of 50 μM, and the cultures were maintained for 24 hours in a CO2 incubator. During incubation, lactate dehydrogenase (LDH) was released into the medium upon neuronal death by the oxidative toxicity of iron. The extent of neuronal damage was assessed by measuring the amount of LDH released into the media. The protective effect of the compounds of interest on neurons was evaluated by calculating the reduction rate of released LDH of treated group compared with that of the control group, and IC50 was calculated as the least linear regression analysis of dose-response curve.

| SMILES | IC50 (isolated rat aorta) [µM] | LDVP × HR (%) (isolated rat hearts; 30 min reperfusion, % of pretreatment DP) | TTC (time to contracture) (isolated rat hearts; global ischemia) [min] | EDP (isolated rat hearts; reperfusion) [MmHg] | LDH (reperfusion release) (isolated rat hearts; reperfusion) [U/g] | AAR/LV (%) (ischemic hearts) | IZ/AAR (%) (ischemic hearts) | Tube formation ([1]; 10 μM) | Tube formation ([1]; 100 μM) | % Inhibition of lipid peroxidation by iron (rat brain homogenate) [%] | clinical symptoms, body weight and mortality (SPF SD rats) | inhibitory effect on HUVEC tube formation ([1]; 10 uM) | inhibitory effect on HUVEC tube formation ([1]; 100 uM) | inhibition at 30 µM ([2]; 30 μM, read-out: Neuroprotection inhibition % (LDH release)) [%] | IC50 ([2]; read-out: Neuroprotection IC50) [µM] |
| --- | --- | --- | --- | --- | --- | --- | --- | --- | --- | --- | --- | --- | --- | --- | --- |
| CC1(C)Oc2ccc(C#N)cc2[C@@H](N=C(NC#N)Nc2ccc(Cl)cc2)[C@@H]1O [BMS-180448, reference compound] | 1.38 | 67.6 | 27.8 | 16.5 | 17.2 | 38.8 | 39.1 | – | – | – | – | – | – | – | – |
| COC(OC)[C@@]1(C)Oc2ccc(N)cc2[C@@H](N(Cc2ncc[nH]2)c2ccc(C(F)(F)F)cc2)[C@@H]1O [Example 25, (2S,3S,4R)-6-amino-3,4-dihydro-2-dimethoxymethyl-3-hydroxy-2-methyl-4-[N-(4-trifluoromethylphenyl)-N-(1H-imidazol-2-ylmethyl)amino]-2H-1-benzopyran] | – | – | – | – | – | – | – | +/− | +/− | 97 | no significant changes | – | – | – | – |
| COC(OC)[C@@]1(C)Oc2ccc([N+](=O)[O-])cc2[C@H](N(Cc2ncc[nH]2)c2ccc(Cl)cc2)[C@H]1O [Example 2, (2S,3R,4S)-3,4-dihydro-2-dimethoxymethyl-3-hydroxy-2-methyl-6-nitro-4-[N-(4-chlorophenyl)-N-(1H-imidazol-2-ylmethyl)amino]-2H-1-benzopyran] | – | – | – | – | – | – | – | ++ | +++ | – | no significant changes | strong inhibition | complete inhibition | 92 | 6.2 |
| COC(OC)[C@@]1(C)Oc2ccc(N)cc2[C@@H](N(Cc2ncc[nH]2)c2ccc(Cl)cc2)[C@@H]1O [Example 24, (2S,3S,4R)-6-amino-3,4-dihydro-2-dimethoxymethyl-3-hydroxy-2-methyl-4-[N-(4-chlorophenyl)-N-(1H-imidazol-2-ylmethyl)amino]-2H-1-benzopyran] | – | – | – | – | – | – | – | + | + | 83 | no significant changes | – | – | – | – |
